Laboratory results taken from the NIST ThermoML archive (doi:10.1021/je400709f).

Assay: excess molar enthalpy (molar enthalpy of mixing); xn = mol fraction of the nth substance listed
Conditions: 298.15 K, 101 kPa, Liquid, Calvet calorimetry

CCCCCCCC[n+]1ccn(C)c1.F[B-](F)(F)F [1-methyl-3-octylimidazolium tetrafluoroborate] + CCCCO
Conditions	excess molar enthalpy [kcal/mol]
x1 = 0.191	0.349
x1 = 0.195	0.355
x1 = 0.2	0.362
x1 = 0.204	0.369
x1 = 0.209	0.376
x1 = 0.214	0.384
x1 = 0.219	0.391
x1 = 0.223	0.397
x1 = 0.228	0.402
x1 = 0.233	0.407
x1 = 0.238	0.413
x1 = 0.243	0.419
x1 = 0.248	0.425
x1 = 0.254	0.431
x1 = 0.259	0.438
x1 = 0.266	0.446
x1 = 0.272	0.453
x1 = 0.279	0.461
x1 = 0.286	0.469
x1 = 0.293	0.48
x1 = 0.301	0.492
x1 = 0.309	0.504
x1 = 0.318	0.516
x1 = 0.328	0.528
x1 = 0.337	0.541
x1 = 0.348	0.554
x1 = 0.359	0.566
x1 = 0.371	0.577
x1 = 0.383	0.586
x1 = 0.392	0.593
x1 = 0.4	0.599
x1 = 0.41	0.605
x1 = 0.419	0.608
x1 = 0.429	0.611
x1 = 0.44	0.611
x1 = 0.451	0.611
x1 = 0.462	0.608
x1 = 0.474	0.605
x1 = 0.487	0.6
x1 = 0.501	0.596
x1 = 0.515	0.589
x1 = 0.53	0.582
x1 = 0.546	0.571
x1 = 0.563	0.56
x1 = 0.582	0.545
x1 = 0.601	0.531
x1 = 0.622	0.511
x1 = 0.644	0.49
x1 = 0.653	0.482
x1 = 0.663	0.474
x1 = 0.673	0.464
x1 = 0.683	0.455
x1 = 0.693	0.443
x1 = 0.704	0.429
x1 = 0.715	0.417
x1 = 0.727	0.405
x1 = 0.739	0.392
x1 = 0.751	0.378
x1 = 0.764	0.363
x1 = 0.777	0.348
x1 = 0.79	0.331
x1 = 0.804	0.313
x1 = 0.819	0.294
x1 = 0.834	0.275
x1 = 0.85	0.254
x1 = 0.866	0.231
x1 = 0.883	0.208
x1 = 0.9	0.18
x1 = 0.919	0.149
x1 = 0.938	0.114
x1 = 0.958	0.0796
x1 = 0.978	0.0411

CCCCCCCC[n+]1ccn(C)c1.F[B-](F)(F)F [1-methyl-3-octylimidazolium tetrafluoroborate] + CCCO
Conditions	excess molar enthalpy [kcal/mol]
x1 = 0.136	0.302
x1 = 0.138	0.306
x1 = 0.141	0.311
x1 = 0.144	0.317
x1 = 0.146	0.322
x1 = 0.149	0.327
x1 = 0.152	0.333
x1 = 0.156	0.339
x1 = 0.159	0.345
x1 = 0.163	0.352
x1 = 0.166	0.358
x1 = 0.169	0.363
x1 = 0.173	0.368
x1 = 0.176	0.374
x1 = 0.179	0.38
x1 = 0.183	0.385
x1 = 0.187	0.391
x1 = 0.19	0.397
x1 = 0.194	0.404
x1 = 0.199	0.411
x1 = 0.203	0.419
x1 = 0.208	0.426
x1 = 0.212	0.435
x1 = 0.217	0.443
x1 = 0.223	0.451
x1 = 0.228	0.46
x1 = 0.234	0.469
x1 = 0.24	0.479
x1 = 0.247	0.489
x1 = 0.253	0.5
x1 = 0.261	0.511
x1 = 0.268	0.523
x1 = 0.276	0.534
x1 = 0.285	0.546
x1 = 0.29	0.554
x1 = 0.296	0.562
x1 = 0.302	0.57
x1 = 0.309	0.577
x1 = 0.315	0.585
x1 = 0.322	0.592
x1 = 0.329	0.6
x1 = 0.337	0.607
x1 = 0.345	0.614
x1 = 0.353	0.62
x1 = 0.362	0.624
x1 = 0.371	0.629
x1 = 0.381	0.632
x1 = 0.391	0.634
x1 = 0.401	0.635
x1 = 0.413	0.635
x1 = 0.425	0.636
x1 = 0.437	0.635
x1 = 0.451	0.634
x1 = 0.465	0.632
x1 = 0.48	0.628
x1 = 0.496	0.623
x1 = 0.513	0.617
x1 = 0.532	0.61
x1 = 0.552	0.598
x1 = 0.56	0.592
x1 = 0.569	0.586
x1 = 0.578	0.579
x1 = 0.587	0.571
x1 = 0.596	0.563
x1 = 0.606	0.555
x1 = 0.616	0.545
x1 = 0.627	0.535
x1 = 0.638	0.525
x1 = 0.649	0.513
x1 = 0.66	0.501
x1 = 0.672	0.488
x1 = 0.685	0.474
x1 = 0.698	0.458
x1 = 0.711	0.443
x1 = 0.725	0.425
x1 = 0.74	0.407
x1 = 0.755	0.387
x1 = 0.771	0.366
x1 = 0.787	0.343
x1 = 0.804	0.319
x1 = 0.822	0.293
x1 = 0.841	0.265
x1 = 0.86	0.235
x1 = 0.881	0.202
x1 = 0.902	0.168
x1 = 0.925	0.131
x1 = 0.949	0.0915
x1 = 0.974	0.0476

CCCCCCCC[n+]1ccn(C)c1.F[B-](F)(F)F [1-methyl-3-octylimidazolium tetrafluoroborate] + CCO
Conditions	excess molar enthalpy [kcal/mol]
x1 = 0.135	0.382
x1 = 0.137	0.386
x1 = 0.14	0.391
x1 = 0.143	0.396
x1 = 0.146	0.401
x1 = 0.149	0.406
x1 = 0.152	0.411
x1 = 0.155	0.415
x1 = 0.159	0.421
x1 = 0.162	0.426
x1 = 0.166	0.431
x1 = 0.17	0.437
x1 = 0.174	0.442
x1 = 0.178	0.448
x1 = 0.183	0.454
x1 = 0.188	0.46
x1 = 0.193	0.466
x1 = 0.198	0.472
x1 = 0.204	0.479
x1 = 0.209	0.486
x1 = 0.216	0.494
x1 = 0.222	0.502
x1 = 0.23	0.51
x1 = 0.237	0.519
x1 = 0.242	0.527
x1 = 0.247	0.534
x1 = 0.253	0.542
x1 = 0.259	0.55
x1 = 0.264	0.557
x1 = 0.271	0.565
x1 = 0.277	0.572
x1 = 0.284	0.579
x1 = 0.291	0.586
x1 = 0.299	0.592
x1 = 0.307	0.598
x1 = 0.315	0.603
x1 = 0.324	0.608
x1 = 0.334	0.611
x1 = 0.344	0.614
x1 = 0.354	0.617
x1 = 0.365	0.619
x1 = 0.377	0.621
x1 = 0.39	0.622
x1 = 0.404	0.622
x1 = 0.419	0.621
x1 = 0.435	0.619
x1 = 0.452	0.614
x1 = 0.47	0.608
x1 = 0.49	0.601
x1 = 0.499	0.597
x1 = 0.507	0.593
x1 = 0.517	0.588
x1 = 0.526	0.583
x1 = 0.536	0.577
x1 = 0.546	0.57
x1 = 0.556	0.563
x1 = 0.567	0.555
x1 = 0.579	0.546
x1 = 0.591	0.537
x1 = 0.603	0.526
x1 = 0.616	0.515
x1 = 0.629	0.503
x1 = 0.643	0.489
x1 = 0.658	0.475
x1 = 0.673	0.458
x1 = 0.689	0.441
x1 = 0.706	0.422
x1 = 0.724	0.401
x1 = 0.743	0.379
x1 = 0.762	0.354
x1 = 0.783	0.327
x1 = 0.805	0.297
x1 = 0.828	0.266
x1 = 0.852	0.23
x1 = 0.878	0.193
x1 = 0.906	0.15
x1 = 0.935	0.106
x1 = 0.966	0.0557
